Results: ChEMBL document CHEMBL4680113, “Tigliane Diterpenoids as a New Type of Antiadipogenic Agents Inhibit GRα-Dexras1 Axis in Adipocytes” (J Med Chem, 2019)
The source made the active and inactive calls. No cut-off for these calls is given here.

Key:
HepG2 [1] = test: Lipid lowering activity in human HepG2 cells assessed as reduction in high-glucose induced triglyceride levels at 10 uM incubated for 24 hrs by GPO-POD assay; assay type: functional, cell-based
3T3-L1 [2] = test: Inhibition of adipogenic cocktail-induced ACC mRNA expression in mouse 3T3-L1 cells incubated for 6 days by RT-qPCR analysis; assay type: functional, cell-based; details: time 6.0 day
3T3-L1 [3] = test: Inhibition of adipogenic cocktail-induced FAS mRNA expression in mouse 3T3-L1 cells incubated for 6 days by RT-qPCR analysis; assay type: functional, cell-based; details: time 6.0 day
3T3-L1 [4] = test: Inhibition of adipogenic cocktail-induced C/EBP-delta protein expression in mouse 3T3-L1 cells at 1 to 10 uM incubated for 0.5 hrs by Western blot analysis; assay type: functional, cell-based; details: dose 1-10 µM
3T3-L1 [5] = test: Inhibition of adipogenic cocktail-induced C/EBP-beta protein expression in mouse 3T3-L1 cells at 1 to 10 uM incubated for 0.5 hrs by Western blot analysis; assay type: functional, cell-based; details: dose 1-10 µM
3T3-L1 [6] = test: Inhibition of GR-alpha in mouse 3T3-L1 cells assessed as reduction in GR-alpha interaction with C/EBP-beta at 1 uM incubated for 8 hrs by ChIP assay; assay type: cell-based
3T3-L1 [7] = test: Inhibition of adipogenic cocktail-induced FAS protein expression in mouse 3T3-L1 cells incubated for 6 days by Western blot analysis; assay type: functional, cell-based; details: time 6.0 day
3T3-L1 [8] = test: Inhibition of GR-alpha in mouse 3T3-L1 cells assessed as reduction in GR-alpha interaction with Dexras1 at 1 uM incubated for 8 hrs by ChIP assay; assay type: cell-based
3T3-L1 [9] = test: Lipid lowering activity in mouse 3T3-L1 cells assessed as reduction in adipogenic cocktail-induced triglyceride levels incubated for 6 days by GPO-POD assay; assay type: functional, cell-based; details: for EC50: 3T3-L1, 144 h; for inhibition: time 6.0 day
3T3-L1 [10] = test: Inhibition of adipogenic cocktail-induced C/EBPalpha mRNA expression in mouse 3T3-L1 cells incubated for 24 hrs by RT-qPCR analysis; assay type: functional, cell-based
[11] = Selectivity index, ratio of IC50 for cytotoxicity against mouse 3T3-L1 cells to EC50 for lipid lowering activity in mouse 3T3-L1 cells
3T3-L1 [12] = test: Inhibition of adipogenic cocktail-induced C/EBP-alpha mRNA expression in mouse 3T3-L1 cells at 1 uM after 1 day in presence of GR-alpha siRNA by RT-qPCR analysis; assay type: functional, cell-based
3T3-L1 [13] = test: Lipid lowering activity in mouse 3T3-L1 cells assessed as reduction in methylprednisolone-induced triglyceride levels at 1 uM incubated for 6 days by GPO-POD assay; assay type: functional, cell-based; details: time 6.0 day
3T3-L1 [14] = test: Inhibition of GR-alpha in mouse 3T3-L1 cells assessed as reduction in methylprednisolone-induced Dexras1 mRNA expression at 1 uM incubated for 4 hrs by RT-qPCR analysis; assay type: cell-based
3T3-L1 [15] = test: Inhibition of GR-alpha in mouse 3T3-L1 cells assessed as reduction in adipogenic cocktail-induced Dexras1 mRNA expression at 1 uM incubated for 4 hrs by RT-qPCR analysis; assay type: cell-based
3T3-L1 [16] = test: Inhibition of methylprednisolone-induced PPARgamma mRNA expression in mouse 3T3-L1 cells at 1 uM by RT-qPCR analysis; assay type: functional, cell-based
HepG2 [17] = test: Lipid lowering activity in human HepG2 cells assessed as reduction in high-glucose induced triglyceride levels at 1 uM incubated for 6 days in presence of Dexras1 siRNA by GPO-POD assay; assay type: functional, cell-based; details: time 6.0 day

SMILES | inhibition (HepG2 [1]) | inhibition (3T3-L1 [2]) | inhibition (3T3-L1 [3]) | inhibition (3T3-L1 [4]) | inhibition (3T3-L1 [5]) | inhibition (3T3-L1 [6]) | inhibition (3T3-L1 [7]) | inhibition (3T3-L1 [8]) | EC50 (3T3-L1 [9]) [nM] | inhibition (3T3-L1 [9]) | inhibition (3T3-L1 [10]) | Selectivity Index [11] | inhibition (3T3-L1 [12]) | inhibition (3T3-L1 [13]) | inhibition (3T3-L1 [14]) | inhibition (3T3-L1 [15]) | inhibition (3T3-L1 [16]) | inhibition (HepG2 [17])
CC1=C[C@@H]2[C@@H](C1=O)[C@H](O)C(C)=C[C@H]1[C@@H]3C(C)(C)[C@]3(OC(=O)C(C)C)[C@H](OC(=O)c3ccccc3)[C@@H](C)[C@]21O | Active | Dose-dependent effect | Dose-dependent effect | inactive | inactive | Active | Dose-dependent effect | Active | 610 | Dose-dependent effect | Dose-dependent effect | 28 | Active |  |  |  |  | 
CC(=O)O[C@@H]1C(C)=C[C@H]2[C@@H]3C(C)(C)[C@]3(OC(=O)C(C)C)[C@H](OC(=O)c3ccccc3)[C@@H](C)[C@]2(O)[C@@H]2C=C(C)C(=O)[C@@H]12 | Active | Dose-dependent effect | Dose-dependent effect | inactive | inactive | Active | Dose-dependent effect | Active | 320 | Dose-dependent effect | Dose-dependent effect | >312 | Active | Active | Active | Active | Active | Active
